Results on 15 compounds are retold here after US20140120083A1, “TREATMENT OF CANCERS USING PI3 KINASE ISOFORM MODULATORS” (INFINITY PHARMACEUTICALS, INC., priority 2012, published 2014).

Holding throughout (assay type): biochemical
One assay deals with T1, PI3K γ (Homo sapiens, UniProt P48736).
T1 construct: purchased Sigma
Put plainly: In vitro IC50, PI3K γ. An excerpt: (§1) An exemplary system is PI 3-Kinase (human) HTRF™ Assay from Upstate.

The target of another assay is PI3K δ (Homo sapiens, UniProt O00329). Put plainly: In vitro IC50, PI3K δ. Also on record: purchased Upstate.
Text: as §1

A further assay deals with PI3K β (Homo sapiens, UniProt P42338). Put plainly: In vitro IC50, PI3K β.
Text: as §1

In a further assay the target is T2, PI3K α (Homo sapiens, UniProt P42336).
T2 construct: purchased Upstate
Put plainly: In vitro IC50, PI3K α.
Text: as §1

PI3K δ, sequence (O00329 whole entry): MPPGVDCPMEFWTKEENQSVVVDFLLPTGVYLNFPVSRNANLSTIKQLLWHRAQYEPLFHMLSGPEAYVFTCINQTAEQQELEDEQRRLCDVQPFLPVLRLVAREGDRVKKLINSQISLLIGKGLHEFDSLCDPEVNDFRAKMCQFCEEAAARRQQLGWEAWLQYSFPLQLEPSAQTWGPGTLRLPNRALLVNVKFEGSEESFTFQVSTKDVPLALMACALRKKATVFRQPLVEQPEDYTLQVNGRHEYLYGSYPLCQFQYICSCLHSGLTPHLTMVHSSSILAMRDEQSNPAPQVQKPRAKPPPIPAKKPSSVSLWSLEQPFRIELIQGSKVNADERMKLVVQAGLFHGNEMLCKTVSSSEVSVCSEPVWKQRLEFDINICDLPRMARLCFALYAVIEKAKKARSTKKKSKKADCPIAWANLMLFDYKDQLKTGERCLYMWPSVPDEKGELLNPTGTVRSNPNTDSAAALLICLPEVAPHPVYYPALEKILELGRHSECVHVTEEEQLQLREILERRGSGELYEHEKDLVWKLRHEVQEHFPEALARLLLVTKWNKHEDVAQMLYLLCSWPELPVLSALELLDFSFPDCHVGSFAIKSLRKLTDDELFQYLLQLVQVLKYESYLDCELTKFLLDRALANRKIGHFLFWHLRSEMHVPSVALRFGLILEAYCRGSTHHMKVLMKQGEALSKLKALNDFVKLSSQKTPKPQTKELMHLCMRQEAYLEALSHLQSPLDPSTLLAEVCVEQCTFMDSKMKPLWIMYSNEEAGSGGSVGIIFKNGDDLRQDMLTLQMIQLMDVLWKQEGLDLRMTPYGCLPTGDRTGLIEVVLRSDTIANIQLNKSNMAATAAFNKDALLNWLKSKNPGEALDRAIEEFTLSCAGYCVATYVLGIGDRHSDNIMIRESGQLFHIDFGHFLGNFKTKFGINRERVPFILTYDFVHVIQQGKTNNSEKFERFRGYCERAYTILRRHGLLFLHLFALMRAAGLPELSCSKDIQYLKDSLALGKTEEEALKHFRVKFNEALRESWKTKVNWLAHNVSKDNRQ
PI3K δ, sequence (P27986 whole entry partner): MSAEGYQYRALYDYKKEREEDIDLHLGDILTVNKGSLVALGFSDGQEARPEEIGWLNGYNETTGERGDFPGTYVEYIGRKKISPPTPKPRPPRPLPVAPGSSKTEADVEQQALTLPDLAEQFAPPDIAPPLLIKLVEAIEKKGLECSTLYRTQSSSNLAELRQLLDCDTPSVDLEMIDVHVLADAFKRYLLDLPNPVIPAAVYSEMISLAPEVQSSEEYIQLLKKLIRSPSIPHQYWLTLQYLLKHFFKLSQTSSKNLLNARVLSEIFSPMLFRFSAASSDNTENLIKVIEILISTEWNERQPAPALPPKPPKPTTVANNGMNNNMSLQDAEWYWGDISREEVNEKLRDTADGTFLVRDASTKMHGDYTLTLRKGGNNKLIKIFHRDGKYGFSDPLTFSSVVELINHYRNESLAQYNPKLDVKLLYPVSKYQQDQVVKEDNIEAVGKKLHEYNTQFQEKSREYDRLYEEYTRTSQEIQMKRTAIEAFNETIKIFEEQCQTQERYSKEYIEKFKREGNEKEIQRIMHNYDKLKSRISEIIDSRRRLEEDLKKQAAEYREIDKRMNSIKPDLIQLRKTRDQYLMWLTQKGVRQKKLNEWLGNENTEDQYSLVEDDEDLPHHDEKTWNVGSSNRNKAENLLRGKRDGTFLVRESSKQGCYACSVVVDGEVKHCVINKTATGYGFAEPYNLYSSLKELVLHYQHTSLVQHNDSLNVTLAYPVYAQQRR
T2 sequence (P42336 whole entry): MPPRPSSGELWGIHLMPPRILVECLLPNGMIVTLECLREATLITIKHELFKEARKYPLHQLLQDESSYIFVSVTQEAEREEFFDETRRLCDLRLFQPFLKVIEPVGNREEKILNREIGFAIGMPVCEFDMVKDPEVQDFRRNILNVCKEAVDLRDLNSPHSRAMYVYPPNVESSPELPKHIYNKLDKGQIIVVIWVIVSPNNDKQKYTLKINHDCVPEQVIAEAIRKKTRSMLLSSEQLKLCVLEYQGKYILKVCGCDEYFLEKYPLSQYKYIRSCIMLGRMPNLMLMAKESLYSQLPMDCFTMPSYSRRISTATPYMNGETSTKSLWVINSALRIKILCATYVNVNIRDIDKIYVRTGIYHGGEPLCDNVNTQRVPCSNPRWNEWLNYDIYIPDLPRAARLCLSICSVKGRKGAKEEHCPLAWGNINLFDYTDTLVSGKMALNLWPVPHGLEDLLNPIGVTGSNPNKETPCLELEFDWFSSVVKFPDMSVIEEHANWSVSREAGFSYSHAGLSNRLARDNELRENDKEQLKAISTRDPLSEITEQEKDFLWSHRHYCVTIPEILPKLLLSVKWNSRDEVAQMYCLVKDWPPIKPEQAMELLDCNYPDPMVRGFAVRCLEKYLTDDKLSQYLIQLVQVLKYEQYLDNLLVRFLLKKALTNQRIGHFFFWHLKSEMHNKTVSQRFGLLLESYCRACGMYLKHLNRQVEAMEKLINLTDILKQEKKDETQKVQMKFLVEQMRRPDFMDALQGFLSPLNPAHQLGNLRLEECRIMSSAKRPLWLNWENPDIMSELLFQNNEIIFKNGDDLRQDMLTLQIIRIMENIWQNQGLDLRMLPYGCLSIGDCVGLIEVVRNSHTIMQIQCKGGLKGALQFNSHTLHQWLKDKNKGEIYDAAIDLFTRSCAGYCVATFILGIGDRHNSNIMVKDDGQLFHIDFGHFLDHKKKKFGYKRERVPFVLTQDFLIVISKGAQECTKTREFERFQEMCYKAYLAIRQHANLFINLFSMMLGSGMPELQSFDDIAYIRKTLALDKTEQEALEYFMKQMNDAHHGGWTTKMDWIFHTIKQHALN
T2 sequence (P27986 whole entry partner): as the sequence (P27986 whole entry partner) above
T1 sequence (P48736 whole entry): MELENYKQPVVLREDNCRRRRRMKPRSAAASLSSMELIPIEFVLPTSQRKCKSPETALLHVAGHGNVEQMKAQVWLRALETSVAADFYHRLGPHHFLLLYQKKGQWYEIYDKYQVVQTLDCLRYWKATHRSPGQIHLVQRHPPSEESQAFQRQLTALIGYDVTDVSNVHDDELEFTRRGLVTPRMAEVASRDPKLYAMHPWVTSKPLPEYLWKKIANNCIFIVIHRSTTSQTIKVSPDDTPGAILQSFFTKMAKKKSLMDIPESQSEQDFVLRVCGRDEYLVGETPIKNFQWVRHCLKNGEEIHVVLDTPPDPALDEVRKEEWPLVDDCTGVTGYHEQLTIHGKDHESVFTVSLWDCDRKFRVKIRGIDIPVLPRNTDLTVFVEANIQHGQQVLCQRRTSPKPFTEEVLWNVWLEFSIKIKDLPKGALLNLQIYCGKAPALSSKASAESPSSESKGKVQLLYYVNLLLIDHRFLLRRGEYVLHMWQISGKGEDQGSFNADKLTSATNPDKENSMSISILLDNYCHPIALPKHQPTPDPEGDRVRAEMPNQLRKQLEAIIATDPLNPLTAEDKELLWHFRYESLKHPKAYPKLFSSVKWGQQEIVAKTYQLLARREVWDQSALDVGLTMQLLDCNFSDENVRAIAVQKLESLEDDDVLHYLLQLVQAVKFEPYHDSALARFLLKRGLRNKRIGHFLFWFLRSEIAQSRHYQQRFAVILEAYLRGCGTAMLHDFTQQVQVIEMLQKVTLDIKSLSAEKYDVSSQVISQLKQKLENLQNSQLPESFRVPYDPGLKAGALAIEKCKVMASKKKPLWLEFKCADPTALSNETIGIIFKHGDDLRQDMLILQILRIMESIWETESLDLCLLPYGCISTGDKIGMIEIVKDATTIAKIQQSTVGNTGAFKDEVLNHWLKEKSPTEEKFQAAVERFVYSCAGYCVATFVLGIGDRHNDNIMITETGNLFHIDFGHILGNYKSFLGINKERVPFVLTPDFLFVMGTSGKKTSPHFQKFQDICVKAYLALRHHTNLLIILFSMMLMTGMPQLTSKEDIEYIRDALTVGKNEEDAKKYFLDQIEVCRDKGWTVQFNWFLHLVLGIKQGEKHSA
PI3K β, sequence (P42338 whole entry): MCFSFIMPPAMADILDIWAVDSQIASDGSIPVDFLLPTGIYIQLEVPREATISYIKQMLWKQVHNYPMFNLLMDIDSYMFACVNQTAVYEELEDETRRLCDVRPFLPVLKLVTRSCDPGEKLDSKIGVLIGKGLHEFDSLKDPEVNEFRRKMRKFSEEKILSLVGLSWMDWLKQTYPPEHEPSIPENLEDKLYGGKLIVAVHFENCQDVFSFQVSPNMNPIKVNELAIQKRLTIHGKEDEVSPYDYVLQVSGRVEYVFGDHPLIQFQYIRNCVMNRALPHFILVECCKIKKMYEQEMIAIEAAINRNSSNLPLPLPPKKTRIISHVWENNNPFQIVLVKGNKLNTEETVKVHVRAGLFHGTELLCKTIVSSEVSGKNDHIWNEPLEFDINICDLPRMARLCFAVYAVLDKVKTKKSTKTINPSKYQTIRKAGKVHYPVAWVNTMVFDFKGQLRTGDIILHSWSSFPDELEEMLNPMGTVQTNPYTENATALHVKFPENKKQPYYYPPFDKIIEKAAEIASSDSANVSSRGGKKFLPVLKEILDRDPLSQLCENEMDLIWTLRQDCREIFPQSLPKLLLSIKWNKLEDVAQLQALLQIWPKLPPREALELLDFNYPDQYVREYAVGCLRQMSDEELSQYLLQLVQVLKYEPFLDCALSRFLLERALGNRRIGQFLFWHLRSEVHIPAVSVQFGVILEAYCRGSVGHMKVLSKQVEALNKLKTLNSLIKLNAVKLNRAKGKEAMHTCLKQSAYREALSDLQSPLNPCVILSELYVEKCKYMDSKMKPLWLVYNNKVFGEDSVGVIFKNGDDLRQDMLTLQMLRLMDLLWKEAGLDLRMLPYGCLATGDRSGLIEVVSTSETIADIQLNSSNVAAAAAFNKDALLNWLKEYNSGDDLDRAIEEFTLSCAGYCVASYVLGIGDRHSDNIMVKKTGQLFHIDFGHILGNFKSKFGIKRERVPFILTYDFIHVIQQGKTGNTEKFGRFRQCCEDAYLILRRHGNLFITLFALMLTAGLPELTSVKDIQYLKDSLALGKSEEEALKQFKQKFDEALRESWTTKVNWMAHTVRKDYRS

`Cc1cccc2cc([C@H](C)Nc3ncnc4[nH]nc(Cl)c34)n(C3CC3)c(=O)c12` [Compound 293]: the IC50 (usually the concentration at which inhibition is half-maximal) against PI3K γ was < 1000 nM; at PI3K δ it was < 100 nM; at PI3K β it was < 1000 nM; against PI3K α, > 10000 nM.

Regarding `Cc1cccc2cc(C(C)Nc3ncnc4[nH]cnc34)n(-c3ccc(F)cc3)c(=O)c12` (stereo not drawn) [Compound 213], the half-maximal inhibitory concentration (IC50) was < 100 nM on PI3K γ, < 100 nM against PI3K δ, < 1000 nM on PI3K β and < 10000 nM at PI3K α.

For the compound `Cc1cccc2cc(Cn3nc(-c4cn[nH]c4)c4c(N)ncnc43)n(-c3ccccc3F)c(=O)c12` [Compound 161], the IC50 against PI3K γ was < 1000 nM; against PI3K δ it was < 100 nM; at PI3K β, < 10000 nM; on PI3K α, > 10000 nM.

On to `Cc1cccc2cc(C(C)Nc3ncnc4[nH]cnc34)n(C3CCC3)c(=O)c12` (stereo not drawn) [Compound 215], for which the half-maximal inhibitory concentration (IC50) against PI3K γ is < 100 nM; on PI3K δ it was < 100 nM; against PI3K β it was < 10000 nM; against PI3K α, > 10000 nM.

Regarding `Cc1cccc2cc(Cn3nc(I)c4c(N)ncnc43)n(C)c(=O)c12` [Compound 107], the IC50 on PI3K γ is < 10000 nM; on PI3K δ, < 1000 nM; at PI3K β it was > 10000 nM; at PI3K α, > 10000 nM.

For `Cc1ccccc1-n1c(Cn2nc(-c3ccc4nc(N)ccc4c3)c3c(N)ncnc32)cc2cccc(C)c2c1=O` [Compound 149], the IC50 on PI3K γ was < 100 nM; on PI3K δ it was < 100 nM; on PI3K β, < 10000 nM; against PI3K α, < 1000 nM.

On to `Cc1cccc2cc(C(C)Nc3ncnc4[nH]cnc34)n(C3CC3)c(=O)c12` (stereo not drawn) [Compound 204], for which the IC50 against PI3K γ was < 100 nM; on PI3K δ it was < 100 nM; on PI3K β, < 1000 nM; against PI3K α it was < 10000 nM.

Regarding `Cc1ccccc1-n1c(Cn2nc(-c3ccc4nc(N)oc4c3)c3c(N)ncnc32)cc2cccc(C)c2c1=O` [Compound 243], the concentration for half-maximal inhibition (IC50) is < 100 nM against PI3K γ, < 100 nM at PI3K δ, < 10000 nM at PI3K β and < 10000 nM against PI3K α.

Consider `Cc1ccccc1-n1c(Cn2nc(CCC(N)=O)c3c(N)ncnc32)cc2cccc(C)c2c1=O` [Compound 175], for which the half-inhibitory concentration (IC50) on PI3K γ is < 10000 nM; against PI3K δ it was < 1000 nM; at PI3K β, > 10000 nM; against PI3K α it was > 10000 nM.

For the compound `C=Cc1nn(Cc2cc3cccc(C)c3c(=O)n2-c2ccccc2C)c2ncnc(N)c12` [Compound 180], the IC50 on PI3K γ was < 1000 nM; against PI3K δ, < 100 nM; at PI3K β it was > 10000 nM; against PI3K α, > 10000 nM.

For the compound `Cc1ccccc1-n1c(Cn2nc(C#CCO)c3c(N)ncnc32)cc2cccc(C)c2c1=O` [Compound 11], the IC50 was < 1000 nM against PI3K γ, < 100 nM against PI3K δ, > 10000 nM at PI3K β and > 10000 nM on PI3K α.

As to `Cc1cccc2cc(C(C)Nc3ncnc4[nH]cnc34)n(-c3ccccc3)c(=O)c12` (stereo not drawn) [Compound 210], the IC50 is < 100 nM on PI3K γ, < 100 nM on PI3K δ, < 10000 nM against PI3K β and < 10000 nM at PI3K α.

On to `Cc1ccccc1-n1c(Cn2nc(-c3ccc(F)c(O)c3)c3c(N)ncnc32)cc2cccc(F)c2c1=O` [Compound 56], for which the IC50 at PI3K γ was < 100 nM; against PI3K δ, < 100 nM; against PI3K β, > 10000 nM; against PI3K α, > 10000 nM.

As to `CCc1ccccc1-n1c(Cn2nc(C#C[C@@H](C)O)c3c(N)ncnc32)cc2cccc(C)c2c1=O` [Compound 99], the half-maximal inhibitory concentration (IC50) at PI3K γ is < 1000 nM; against PI3K δ it was < 100 nM; against PI3K β it was < 10000 nM; at PI3K α, > 10000 nM.

Consider `CCc1ccccc1-n1c(Cn2nc(-c3cc(O)cc(F)c3)c3c(N)ncnc32)cc2cccc(C)c2c1=O` [Compound 89], for which the IC50 was < 100 nM on PI3K γ, < 100 nM against PI3K δ, < 1000 nM against PI3K β and < 10000 nM on PI3K α.
